Measured values as given in patent US20150045291A1, “LIPOPEPTIDE CONJUGATES COMPRISING SPHINGOLIPID AND HIV GP41 DERIVED PEPTIDES” (priority 2012, published 2015).
Where two headings read alike, the source gives them in different places. Starred links: 1 amine or outer side, 2 acyl side, 3 side chain; linkers in the order of their positions; H or OH if unused. Residues, ends and D or L forms follow the SMILES beside them. *: point of attachment. Sphinganine = CCCCCCCCCCCCCCC[C@@H](O)[C@H](CO)N*; Palmitoyl = CCCCCCCCCCCCCCCC(=O)*; CO = O=C([*:1])[*:2]

How the values were obtained:
[1] = Peptide binding to LUV, PC:Chol (9:1); conditions: Ka, NBD-labeled compound titrated with LUV; mean±s.d. of the fitting curve, n=3
Experimental: (§1) Lipid vesicle preparation. Large unilamellar vesicles (LUV) were prepared from egg phosphatidylcholine (PC), cholesterol (Chol) and egg yolk sphingomyelin (SM) (Sigma Chemical Co., Israel). A dried film of lipids containing a total of 2 mg of PC:SM:Chol (1:1:1) or 2 mg of PC:Chol (9:1) was suspended in PBS and vortexed for 1.5 min. The lipid suspension underwent five cycles of freezing-thawing and then extrusion through polycarbonate membranes with 1 μm and 0.1 μm diameter pores for 25 times.
(§2) Peptide binding to LUV. The degree of peptide association with lipid vesicles was measured by adding lipid vesicles to 0.1 μM fluorescently NBD-labeled peptides at room temperature. The fluorescence intensity was measured as a function of the lipid:peptide molar ratio, with excitation set at 467 nm (10-nm slit) and emission set at 530 nm (10-nm slit). To determine the extent of the lipid's contribution to any given signal, the readings after the addition of lipid vesicles were subtracted as background from the recorded fluorescence intensity. The affinity constants were then determined by steady state affinity model using non-linear least-squares (NLLSQ). The NLLSQ fitting was done using the following equation: […]
(§3) where X is the lipid concentration, Y(x) is the fluorescence emission, Fmax is the maximal difference in the emission of NBD-labeled peptide before and after the addition of lipids (it represents the maximum peptide bound to lipid), and Ka is the affinity constant.
(§4) Compound association with lipid vesicles was estimated by NBD-labeled compound titration with large unilamellar vesicles. The mole ratio between phosphatidylcholine (PC), sphingomyelin (SM), and cholesterol (Chol) is presented for each vesicle. The membrane-binding constants (Ka) were calculated from equation 2 in the Methods. Results represent the mean±s.d. of the fitting curve, n=3.

[2] = Peptide binding to LUV, PC:SM:Chol (1:1:1); conditions: Ka, NBD-labeled compound titrated with LUV; mean±s.d. of the fitting curve, n=3
Experimental: as §1, §2, §3, §4

[3] = Secondary structure determination by circular dichroism; format: physicochemical; conditions: percentage of α-helical structure, CD, 10 μM peptide in HEPES buffer 5 mM pH 7.4, 25° C.
Experimental: Secondary structure determination. Circular Dichroism (CD) measurements were performed by using an AppliedPhoto physics spectropolarimeter. The spectra were scanned using a thermostatic quartz cuvette with a path length of 1 mm. Wavelength scans were performed at 25° C.; the average recording time was 15 sec, in 1-nm steps, in the wavelength range of 190-260 nm. Each peptide concentration was 10 μM in HEPES buffer (5 mM, pH 7.4).
Helicity (%): The percentage of α-helical structure was determined as described in the section of Materials and Methods.

[4] = Hydrophobicity by RP-HPLC; format: physicochemical; conditions: RP-HPLC retention time, analytical C2 column, CH3CN/H2O gradient
Experimental: Peptide synthesis, lipid moiety conjugation, and fluorescent labeling. Peptides were synthesized on Rink Amide MBHA resin by using the F-moc strategy. Several peptides contain a lysine residue at their C-terminus with an MTT side-chain protecting group (Nova-biochem AG, Switzerland) that requires a special deprotection step under mild acidic conditions (2×1 min of 5% trifluoroacetic acid (TFA) in dichloromethane (DCM) and 30 min of 1% TFA in DCM). This enables the conjugation of a lipid moiety or a fluorescent probe to the C-terminus. The chemical synthesis schemes of the following compounds 1-5 are described in FIG. 6. Conjugation of hexadecanoic (palmitic) acid (C16) or α-Tocopherol succinate (Sigma Chemical Co., Israel) to the N-terminus of selected peptides (compound 2 and compound 4, respectively) was performed using standard F-moc chemistry. Conjugation of cholesterol to the N-terminus of a peptide (compound 3) was performed by adding 10 equivalents of cholesteryl chloroformate (Alfa Aesar, USA) dissolved in DCM, together with 3 equivalents of triethyl amine to the peptides' resin. Conjugation of D-erythro-Dihydrosphingosine (D-erythro sphinganine), (Matreya, LCC, USA) to the N- or C-terminus of a peptide (compound 1) was performed as followed: first, 10 equivalents of N,N′-Disuccinimidyl carbonate (DSC) (Chem-Impex Internatinal, USA) and 20 equivalents of N,N-Diisopropylethylamine (DIEA) were added to the resin for 2 hours in dimethylformamide (DMF). Then, 2 equivalents of sphinganine and 2 equivalents of DIEA were added for overnight incubation in DMF anhydrous. The conjugation of D-erythro-Sphingosine (Matreya, LCC, USA) to the peptides (compound 5) was performed as described for compound 1. Addition of NBD-F, fluoride (4-fluoro-7-nitrobenzofurazan) (NBD) fluorescent probe (Biotium, USA) to the N- or C-terminus of selected peptides was performed in DMF for 1 hour. All peptides were cleaved from the resin by a TFA:DDW:TES (93.1:4.9:2 (v/v)) mixture, and purified by reverse-phase high-performance liquid chromatography (RP-HPLC) to >95% homogeneity. The molecular weight of the peptides was confirmed by platform LCA electrospray mass spectrometry. For hydrophobicity tests the peptides were eluted with a flow rate of 0.6 ml/min using a two-step linear gradient from CH3CN/H2O 20:80 v/v to CH3CN/H2O 95:5 v/v in 30 min and from CH3CN/H2O 95:5 v/v to CH3CN/H2O 95:5 in 10 min v/v on an analytical C2 column (7 μm particle size, pore size 100 Å) from Nucleosil.
Hydrophobicity (min): Hydrophobicity was analyzed by RP-HPLC. The retention time of each compound is presented.

[5] = tested on: fully infectious HIV-1 HXB2
[6] = tested on: Fuzeon-resistant LAI strain with V38E mutation in gp41; test: Fuzeon-resistant virus infection; conditions: mutation in the GIV sequence (V38E)
[7] = tested on: pseudotyped virus with LAI ENV (CXCR4 tropic)
[8] = tested on: pseudotyped virus with AD8 ENV (CCR5 tropic)
[9] = fully infectious HIV-1 system (Table 2)

CCCCCCCCCCCCCCCC(=O)N[C@@H](CC(C)C)C(=O)N[C@@H](CC(C)C)C(=O)N[C@@H](CCC(N)=O)C(=O)N[C@@H](CC(C)C)C(=O)N[C@H](C(=O)N[C@H](C(=O)N[C@@H](Cc1c[nH]c2ccccc12)C(=O)NCC(=O)N[C@H](C(=O)N[C@@H](CCCCN)C(=O)N[C@@H](CCC(N)=O)C(=O)N[C@@H](CC(C)C)C(=O)N[C@@H](CCC(N)=O)C(=O)N[C@@H](C)C(=O)N[C@@H](CCCNC(=N)N)C(=O)N[C@H](C(=O)N[C@@H](CC(C)C)C(N)=O)[C@@H](C)CC)[C@@H](C)CC)C(C)C)[C@@H](C)O [Palmitic acid-N17] (Palmitoyl-LLQLTVWGIKQLQARIL-NH2)
Membrane-binding constant (M^−1), PC:Chol (9:1) [1]: 170000 ± 30000 M⁻¹ | Membrane-binding constant (M^−1), PC:SM:Chol (1:1:1) [2]: 150000 ± 70000 M⁻¹ | Helicity (%) [3]: <10% | Hydrophobicity [4]: 26.7 min | IC50 [5, 9]: > 4000 nM | IC50 ([5]; read-out: Virus-cell fusion IC50, TZM-bl cells infected with fully contagious HIV, mean±s.d., n=3): > 4000 nM

enfuvirtide
Membrane-binding constant (M^−1), PC:Chol (9:1) [1]: 64000 ± 14000 M⁻¹ | Membrane-binding constant (M^−1), PC:SM:Chol (1:1:1) [2]: 31000 ± 5000 M⁻¹ | Antiviral activity against V38E mutant (in words) [6]: considerably weakened the antiviral activity

CCCCCCCCCCCCCCC[C@@H](O)[C@H](CO)NC(=O)N[C@@H](CC(C)C)C(=O)N[C@@H](CC(C)C)C(=O)N[C@@H](CCC(N)=O)C(=O)N[C@@H](CC(C)C)C(=O)N[C@H](C(=O)N[C@H](C(=O)N[C@@H](Cc1c[nH]c2ccccc12)C(=O)NCC(=O)N[C@H](C(=O)N[C@@H](CCCCN)C(=O)N[C@@H](CCC(N)=O)C(=O)N[C@@H](CC(C)C)C(=O)N[C@@H](CCC(N)=O)C(=O)N[C@@H](C)C(=O)N[C@@H](CCCNC(=N)N)C(=O)N[C@H](C(=O)N[C@@H](CC(C)C)C(N)=O)[C@@H](C)CC)[C@@H](C)CC)C(C)C)[C@@H](C)O [Sphinganine-N17, Sphinganine-LLQLTVWGIKQLQARIL] ({Sphinganine-CO}-LLQLTVWGIKQLQARIL-NH2)
Membrane-binding constant (M^−1), PC:Chol (9:1) [1]: 470000 ± 100000 M⁻¹ | Membrane-binding constant (M^−1), PC:SM:Chol (1:1:1) [2]: 84000 ± 14000 M⁻¹ | Helicity (%) [3]: <10% | Hydrophobicity [4]: 27.2 min | Effect on viral infectivity / fusion (in words) ([5]; at / up to 1 μM): completely blocks fusion | IC50 [5, 9]: 121 ± 36 nM | IC50 ([5]; read-out: IC50 (inhibitory concentration at 50% infectivity), TZM-bl cells, fully contagious HXB2 HIV-1): 121 nM | Viral infectivity curves, compound added to target cells before the virus vs immediately after ([5]; time of addition): no difference | IC50 [7]: 312 nM | IC50 [8]: 403 nM | Antiviral activity against V38E mutant (in words) [6]: preserved its potent antiviral activity
